From patent US20240254119A1 (THIRD HARMONIC BIO, INC., priority 2022, published 2024)

target: T1, wtKIT (Homo sapiens, UniProt P10721); test: HTRF biochemical assay, wtKIT (phosphorylation of a peptide substrate); settings: Table 4
T1 construct: 1888289AM in the reaction mixtures
Experimental: Exemplary compounds were tested for ability to inhibit the phosphorylation of a peptide substrate by the tyrosine kinase wt KIT, PDGFRα, or CSF-1R. Assay procedures and results are described below.
Enzyme, substrate, and cofactors (ATP and Mn^2+) are combined in a well of a microtiter plate and incubated for 3 hours at 25° C. At the end of the incubation, the reaction is quenched by the addition of an EDTA-containing buffer.
The substrate used in the CSF-1R and PDGFRα assay is FAM-[…]-CONH2 (FAM is carboxyfluorescein). Peptide should be >95% purity. The substrate for the KIT assay is FAM-[…]-NH2.
• 1. To a well of a 384-wellplate add 5 μL of 2× enzyme buffer (or control). • 2. Add 100 nL of 100× compound. Enzyme and compound may be pre-incubated at this time if desired. • 3. Add 5 μL of 2× substrate buffer. • 4. Incubate plate at 25° C. for 3 hours. • 5. Add 10 uL of anti-phosphotyrosine antibody buffer. • 6. Read plate in BioTek Synergy Reader. Reaction Conditions for wtKIT Assay
• 100 mM HEPES, pH 7.5 0.1% BSA • 0.01% Triton x-100 • 1 mM DTT • 10 mM MnCl2 • 10 μM Sodium Orthovanadate • 10 μM Beta-Glycerophosphate • 400 μM ATP • 1% DMSO (from compound) • 1 μM FAM-[…]-CONH2, 5.0 nM wtKIT Enzyme (1888289AM)* • *Specific activity may vary from lot to lot. Enzyme concentration may need to be adjusted to yield 10-20% conversion of substrate to product.

T1 sequence (P10721 26-976): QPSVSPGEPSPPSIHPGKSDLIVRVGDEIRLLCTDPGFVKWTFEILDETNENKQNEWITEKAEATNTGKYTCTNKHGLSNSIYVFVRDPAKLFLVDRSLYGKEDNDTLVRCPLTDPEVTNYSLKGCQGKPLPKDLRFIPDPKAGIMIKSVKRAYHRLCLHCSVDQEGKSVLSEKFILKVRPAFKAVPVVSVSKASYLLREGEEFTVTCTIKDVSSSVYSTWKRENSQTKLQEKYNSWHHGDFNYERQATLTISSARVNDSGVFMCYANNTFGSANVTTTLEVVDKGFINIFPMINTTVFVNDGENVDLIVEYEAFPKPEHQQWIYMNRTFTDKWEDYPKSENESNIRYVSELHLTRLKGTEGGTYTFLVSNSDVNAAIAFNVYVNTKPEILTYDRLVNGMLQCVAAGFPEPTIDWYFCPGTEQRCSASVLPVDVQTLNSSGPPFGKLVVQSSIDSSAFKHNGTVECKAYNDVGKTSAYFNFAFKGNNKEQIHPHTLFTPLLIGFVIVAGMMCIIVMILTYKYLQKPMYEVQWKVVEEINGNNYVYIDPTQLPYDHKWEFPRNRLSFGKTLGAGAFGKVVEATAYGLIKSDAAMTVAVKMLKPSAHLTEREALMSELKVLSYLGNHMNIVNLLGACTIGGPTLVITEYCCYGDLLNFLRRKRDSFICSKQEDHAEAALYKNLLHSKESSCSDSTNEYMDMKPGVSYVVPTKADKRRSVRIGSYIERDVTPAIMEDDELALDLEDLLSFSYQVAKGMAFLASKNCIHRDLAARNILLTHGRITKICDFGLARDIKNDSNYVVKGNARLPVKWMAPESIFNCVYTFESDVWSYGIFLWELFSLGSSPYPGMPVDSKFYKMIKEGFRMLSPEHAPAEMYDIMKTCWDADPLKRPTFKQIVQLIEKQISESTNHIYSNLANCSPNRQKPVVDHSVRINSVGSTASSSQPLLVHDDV

CCC(O)Cc1nc(-c2ccc(C)c(NC(=O)c3cnc4ccccn34)c2)no1 (stereo not shown) [Compound I-526] and CCc1nc(-c2ccc(C)c(NC(=O)c3cnc4cc(F)ccn34)c2)no1 [Compound I-739] cannot be ordered by IC50: ≤ 50 nM for the first, ≤ 50 nM for the second.

First: Cc1nc(-c2ccc(C)c(NC(=O)c3cnc4cc(C5CCNC5=O)ccn34)c2)no1 (stereo not shown) [Compound I-448]
Second: COc1ccn2c(C(=O)Nc3cc(-c4noc(C)n4)ccc3C)cnc2c1 [Compound I-533, 7-methoxy-N-(2-methyl-5-(5-methyl-1,2,4-oxadiazol-3-yl)phenyl)imidazo[1,2-a]pyridine-3-carboxamide]
The IC50 of the first is higher: 500 to 5000 nM for the first, ≤ 50 nM for the second.

Cc1ccc(-c2noc(C[C@H](O)C(F)F)n2)cc1NC(=O)c1cnc2ccc(-c3ccn(C)n3)cn12 [Compound I-562, (S)—N-(5-(5-(3,3-difluoro-2-hydroxypropyl)-1,2,4-oxadiazol-3-yl)-2-methylphenyl)-6-(1-methyl-1H-pyrazol-3-yl)imidazo[1,2-a]pyridine-3-carboxamide] and Cc1nc(-c2ccc(C)c(NC(=O)c3cnc4ccc(-c5ccn(C)n5)cn34)c2)no1 [Compound I-532, 6-(1-methyl-1H-pyrazol-3-yl)-N-(2-methyl-5-(5-methyl-1,2,4-oxadiazol-3-yl)phenyl)imidazo[1,2-a]pyridine-3-carboxamide] cannot be ordered by IC50: ≤ 50 nM for the first, ≤ 50 nM for the second.

COc1cc2ncc(C(=O)Nc3cc(-c4noc(N5CC(F)(F)C5)n4)ccc3C)n2cc1F [Compound I-611] and Cc1ccc(-c2noc(N3CC(F)(F)C3)n2)cc1NC(=O)c1cnn2cc(Cl)ccc12 [Compound I-625] cannot be ordered by IC50: ≤ 50 nM for the first, ≤ 50 nM for the second.

COC(C)(C)COCc1ccn2c(C(=O)Nc3cc(-c4noc([C@H]5C[C@@H]5F)n4)ccc3C)cnc2c1 [Compound I-465] and Cc1ccc(-c2noc([C@H]3C[C@@H]3F)n2)cc1NC(=O)c1cnc2cc(CCOCC(C)(C)O)ccn12 [Compound I-467, N-(5-(5-((1R,2S)-2-fluorocyclopropyl)-1,2,4-oxadiazol-3-yl)-2-methylphenyl)-7-(2-(2-hydroxy-2-methylpropoxy)ethyl)imidazo[1,2-a]pyridine-3-carboxamide] cannot be ordered by IC50: 50 to 500 nM for the first, ≤ 50 nM for the second.

COc1ccn2c(C(=O)Nc3cc(-c4noc(Cc5ccc(C)cc5)n4)ccc3C)cnc2c1 [Compound I-537, 7-methoxy-N-(2-methyl-5-(5-(4-methylbenzyl)-1,2,4-oxadiazol-3-yl)phenyl)imidazo[1,2-a]pyridine-3-carboxamide] and COc1ccn2c(C(=O)Nc3cc(-c4noc(CC5CCCCO5)n4)ccc3C)cnc2c1 (stereo not shown) [Compound I-592, 7-methoxy-N-(2-methyl-5-(5-((tetrahydro-2H-pyran-2-yl)methyl)-1,2,4-oxadiazol-3-yl)phenyl)imidazo[1,2-a]pyridine-3-carboxamide] cannot be ordered by IC50: ≤ 50 nM for the first, ≤ 50 nM for the second.

CCc1nc(-c2ccc(C)c(NC(=O)c3cnn4cc(-c5ccn(C)n5)ccc34)c2)no1 [Compound I-722] and Cc1ccc(-c2noc(C(C)O)n2)cc1NC(=O)c1cnn2cc(-c3ccn(C)n3)ccc12 (stereo not shown) [Compound I-730] cannot be ordered by IC50: ≤ 50 nM for the first, ≤ 50 nM for the second.

Cc1nc(-c2ccc(C)c(NC(=O)c3cnc4cc(-c5ncsc5CO)ccn34)c2)no1 [Compound I-595, 7-(5-(hydroxymethyl)thiazol-4-yl)-N-(2-methyl-5-(5-methyl-1,2,4-oxadiazol-3-yl)phenyl)imidazo[1,2-a]pyridine-3-carboxamide] and Cc1ccc(-c2noc([C@H](C)O)n2)cc1NC(=O)c1cnc2cc(-c3cscn3)ccn12 [Compound I-721] cannot be ordered by IC50: ≤ 50 nM for the first, ≤ 50 nM for the second.

Cc1ccc(-c2noc(C3CC(N)C3)n2)cc1NC(=O)c1cnc2cc(Cl)ccn12 (stereo not shown) [Compound I-746] and Cc1ccc(-c2noc([C@H]3C[C@@H](N)C3)n2)cc1NC(=O)c1cnc2cc(Cl)ccn12 [Compound I-623] fall in the same range of IC50: 500 to 5000 nM for the first, 500 to 5000 nM for the second.

Cc1ccc(-c2noc(-c3ccccn3)n2)cc1NC(=O)c1cnc2cc(COCC(C)(C)O)ccn12 [Compound I-573] and COCc1ccn2c(C(=O)Nc3cc(-c4ncon4)ccc3C)cnc2c1 [Compound I-677] fall in the same range of IC50: 50 to 500 nM for the first, 50 to 500 nM for the second.

Cc1ccc(-c2noc(C(C)O)n2)cc1NC(=O)c1cnc2cc(F)ccn12 (stereo not shown) [Compound I-741] and Cc1ccc(-c2noc([C@H](O)CO)n2)cc1NC(=O)c1cnc2cc(Cl)ccn12 [Compound I-604] fall in the same range of IC50: 500 to 5000 nM for the first, 500 to 5000 nM for the second.

CNC(C)COCc1ccn2c(C(=O)Nc3cc(-c4noc(CC(O)C(F)F)n4)ccc3C)cnc2c1 (stereo not shown) [Compound I-598] and Cc1ccc(-c2noc(CC(O)C(F)F)n2)cc1NC(=O)c1cnc2cc(COCC(C)N(C)C(=O)OC(C)(C)C)ccn12 (stereo not shown) [Compound I-600] fall in the same range of IC50: 50 to 500 nM for the first, 50 to 500 nM for the second.

Cc1ccc(-c2noc([C@H]3C[C@@H]3F)n2)cc1NC(=O)c1cnc2cc(COCC(C)(C)O)c(F)cn12 [Compound I-498, 6-fluoro-N-[5-[5-[(1R,2S)-2-fluorocyclopropyl]-1,2,4-oxadiazol-3-yl]-2-methyl-phenyl]-7-[(2-hydroxy-2-methyl-propoxy)methyl]imidazo[1,2-a]pyridine-3-carboxamide] and Cc1ccc(-c2noc([C@H]3C[C@@H]3F)n2)cc1NC(=O)c1cnc2c(F)c(COCC(C)(C)O)ccn12 [Compound I-473] cannot be ordered by IC50: ≤ 50 nM for the first, 50 to 500 nM for the second.

Cc1ccc(-c2noc([C@H]3C[C@@H]3F)n2)cc1NC(=O)c1cnc2cc([C@@H]3C[C@H]3CO)ccn12 [Compound I-481, N-[5-[5-[(1R,2S)-2-fluorocyclopropyl]-1,2,4-oxadiazol-3-yl]-2-methyl-phenyl]-7-[(1R,2R)-2 (hydroxymethyl)cyclopropyl]imidazo[1,2-a]pyridine-3-carboxamide] and Cc1ccc(-c2noc([C@H]3C[C@@H]3F)n2)cc1NC(=O)c1cnc2cc3c(cn12)C(C)OC3 (single isomer, unassigned) [Compound I-482, (4S*)—N-[5-[5-[(1R,2S)-2-fluorocyclopropyl]-1,2,4-oxadiazol-3-yl]-2-methyl-phenyl]-4-methyl-5-oxa-1,10-diazatricyclo[7.3.0.0^3,7]dodeca-2,7,9,11-tetraene-12-carboxamide] cannot be ordered by IC50: ≤ 50 nM for the first, ≤ 50 nM for the second.

COCc1ccn2c(C(=O)Nc3cc(-c4noc([C@@H]5CC6(CC6)CN5)n4)ccc3C)cnc2c1 [Compound I-638, N-[5-[5-[(6S)-5-azaspiro[2.4]heptan-6-yl]-1,2,4-oxadiazol-3-yl]-2-methyl-phenyl]-7-(methoxymethyl)imidazo[1,2-a]pyridine-3-carboxamide] and Cc1ccn2c(C(=O)Nc3cc(-c4noc(C5CCCCC5)n4)ccc3C)cnc2c1 [Compound I-539] cannot be ordered by IC50: ≤ 50 nM for the first, ≤ 50 nM for the second.

Cc1ccn2c(C(=O)Nc3cc(-c4noc(CC5CCCO5)n4)ccc3C)cnc2c1 (stereo not shown) [Compound I-553, 7-methyl-N-(2-methyl-5-(5-((tetrahydrofuran-2-yl)methyl)-1,2,4-oxadiazol-3-yl)phenyl)imidazo[1,2-a]pyridine-3-carboxamide] and Cc1ccn2c(C(=O)Nc3cc(-c4noc(CCC(C)(O)C(F)(F)F)n4)ccc3C)cnc2c1 (single isomer, unassigned) [Compound I-515] cannot be ordered by IC50: ≤ 50 nM for the first, ≤ 50 nM for the second.

Cc1ccc(-c2ncon2)cc1NC(=O)c1cnc2cc(-c3cscn3)ccn12 [Compound I-694] and Cc1nc(-c2ccc(C)c(NC(=O)c3cnn4cc(-c5cscn5)ccc34)c2)no1 [Compound I-559, N-(2-methyl-5-(5-methyl-1,2,4-oxadiazol-3-yl)phenyl)-6-(thiazol-4-yl)pyrazolo[1,5-a]pyridine-3-carboxamide] cannot be ordered by IC50: ≤ 50 nM for the first, ≤ 50 nM for the second.
